Assay results as given in patent US9751862B2, “Pesticidally active substituted pyridyl carboxamides” (Syngenta Participations AG, priority 2014, dated 2017).
Read-outs that look alike come from different tables or passages of the source.

What was measured:
Type in all cases: in vivo
[1] = tested on: Myzus persicae (Green Peach Aphid); experiment: Activity against Myzus persicae (mixed population, feeding/residual contact activity, preventive), sunflower leaf discs; settings: foliar, 144 h, read-out: activity (mortality)
Procedure: Sunflower leaf discs were placed on agar in a 24-well microtiter plate and sprayed with test solutions. After drying, the leaf discs were infested with an aphid population of mixed ages. After an incubation period of 6 days, samples were checked for mortality and special effects (e.g. phytotoxicity).

[2] = tested on: Myzus persicae (Green Peach Aphid); experiment: Activity against Myzus persicae (mixed population, systemic/feeding activity, curative), pea seedlings; settings: 144 h, pea seedling roots in test solution, 6 days after introduction
From the text: Example B2: Activity Against Myzus persicae (Green Peach Aphid) (Mixed Population, Systemic/Feeding Activity, Curative)
Pea seedlings, infested with an aphid population of mixed ages, were placed with the roots directly in the test solutions. 6 days after introduction, samples were checked for mortality and special effects on the plant.

Bemisia tabaci = experiment: Activity against Bemisia tabaci (adults on cotton, contact, preventative); settings: foliar, 168 h, sprayed cotton leaf discs, adult white flies, 7 DAT
Procedure: Example B3: Activity Against Bemisia tabaci, (Adults on Cotton, Contact, Preventative)
Cotton leaf discs are placed on agar in a 24-well microtiter plate and sprayed with test solutions. After drying, the leaf discs are infested with adult white flies. After an incubation period of 7 DAT, samples are checked for mortality and special effects (e.g. phytotoxicity).

[3] = tested on: Frankliniella occidentalis (Western Flower Thrips); experiment: Activity against Frankliniella occidentalis (mixed population, contact/feeding), bean plants; settings: 200 ppm; sprayed bean plants; 14 days after infestation
Procedure: Example B4: Activity Against Frankliniella occidentalis (Western Flower Thrips) (Mixed Population, Contact/Feeding)
Bean plants were treated with diluted test solutions in a spray chamber. After drying, plants were infested with a thrips population of mixed ages. 14 days after the infestation, samples were checked for damage reduction compare to the non treated samples.

[4] = 200 ppm, sprayed sunflower leaf discs, 6 days incubation

| SMILES | mortality at 200 ppm [1, 4] [%] | mortality at 24 ppm [2] [%] | mortality at 200 ppm (Bemisia tabaci) [%] | activity (damage reduction compared to non treated samples) [3] | mortality at 200 ppm [1] [%] |
| --- | --- | --- | --- | --- | --- |
| Cc1cc(CC#N)cnc1-n1ncc(C(=O)N(C)c2cccnc2)c1C [Compound 1.001, 1-[5-(cyanomethyl)-3-methyl-2-pyridyl]-N,5-dimethyl-N-(3-pyridyl)pyrazole-4-carboxamide] | ≥ 80 | > 80 | > 80 |  |  |
| Cc1cc(C2(C#N)CC2)cnc1-n1ncc(C(=O)N(C)c2cccnc2)c1C [Compound 1.002, 1-[5-(1-cyanocyclopropyl)-3-methyl-2-pyridyl]-N,5-dimethyl-N-(3-pyridyl)pyrazole-4-carboxamide] | ≥ 80 | > 80 |  |  |  |
| Cc1cc(C(C)C#N)cnc1-n1ncc(C(=O)N(C)c2cccnc2)c1C (stereo not shown) [Compound 1.003, 1-[5-(1-cyanoethyl)-3-methyl-2-pyridyl]-N,5-dimethyl-N-(3-pyridyl)pyrazole-4-carboxamide] | ≥ 80 |  |  | over 80% |  |
| Cc1cc(C(C)(C)C#N)cnc1-n1ncc(C(=O)N(C)c2cccnc2)c1C [Compound 1.004, 1-[5-(1-cyano-1-methyl-ethyl)-3-methyl-2-pyridyl]-N,5-dimethyl-N-(3-pyridyl)pyrazole-4-carboxamide] | ≥ 80 | > 80 |  |  |  |
| Cc1cc(/C(C#N)=N/O)cnc1-n1ncc(C(=O)N(C)c2cccnc2)c1C [Compound 1.007, 1-[5-[(Z)-C-cyano-N-hydroxy-carbonimidoyl]-3-methyl-2-pyridyl]-N,5-dimethyl-N-(3-pyridyl)pyrazole-4-carboxamide] | ≥ 80 | > 80 |  |  |  |
| CCO/N=C(\C#N)c1cnc(-n2ncc(C(=O)N(C)c3cccnc3)c2C)c(C)c1 [Compound 1.008, (3E/Z)-N-ethoxy-5-methyl-6-[5-methyl-4-[methyl(3-pyridyl)carbamoyl]pyrazol-1-yl]pyridine-3-carboximidoyl cyanide] |  |  |  |  | ≥ 80 |
| CCOC(=O)C(CC)c1cnc(-n2ncc(C(=O)N(C)c3cccnc3)c2C)c(C)c1 (stereo not shown) [Compound 1.009] | ≥ 80 |  |  |  |  |
